In ChEMBL document CHEMBL1201862, “PubChem BioAssay data set” (2004):
The source made the active and inactive calls.

How the values were obtained:
[1] = biological target: Large T antigen (Simian virus 40, UniProt P03070); assay type: functional, Betapolyomavirus macacae;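 note: Confirmatory-stage PubChem screen for compounds that inhibit SV40 T antigen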
[2] = cells; assay type: functional, cell-based
[3] = cells; assay type: functional, cell-based; remark: listed apart in the source
[4] = biological target: T1, Carboxy-terminal domain RNA polymerase II polypeptide A small phosphatase 1 (Homo sapiens, UniProt Q9GZU7); assay: CTDSP1 inhibitors, concentration-response, biochemical, absorbance readout, ultra-high-throughput screen actives (AID 540297); assay type: functional
T1 sequence (Q9GZU7 whole entry): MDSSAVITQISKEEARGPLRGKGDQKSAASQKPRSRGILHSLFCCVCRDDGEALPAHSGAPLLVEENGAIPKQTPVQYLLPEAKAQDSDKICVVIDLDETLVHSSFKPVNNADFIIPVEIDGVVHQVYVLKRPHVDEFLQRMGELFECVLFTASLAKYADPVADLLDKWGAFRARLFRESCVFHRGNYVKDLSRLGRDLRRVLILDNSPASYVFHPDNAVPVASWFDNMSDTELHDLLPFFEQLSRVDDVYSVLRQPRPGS

[5] = biological target: T2, Rac GTPase-activating protein 1 (Homo sapiens, UniProt Q9H0H5); assay: blockers of MgcRacGAP-driven Rac1 GTP hydrolysis – biochemical, ADP Hunter fluorescence, primary and confirmatory, confirmation (AID 624330); assay type: functional
T2 sequence (Q9H0H5 whole entry): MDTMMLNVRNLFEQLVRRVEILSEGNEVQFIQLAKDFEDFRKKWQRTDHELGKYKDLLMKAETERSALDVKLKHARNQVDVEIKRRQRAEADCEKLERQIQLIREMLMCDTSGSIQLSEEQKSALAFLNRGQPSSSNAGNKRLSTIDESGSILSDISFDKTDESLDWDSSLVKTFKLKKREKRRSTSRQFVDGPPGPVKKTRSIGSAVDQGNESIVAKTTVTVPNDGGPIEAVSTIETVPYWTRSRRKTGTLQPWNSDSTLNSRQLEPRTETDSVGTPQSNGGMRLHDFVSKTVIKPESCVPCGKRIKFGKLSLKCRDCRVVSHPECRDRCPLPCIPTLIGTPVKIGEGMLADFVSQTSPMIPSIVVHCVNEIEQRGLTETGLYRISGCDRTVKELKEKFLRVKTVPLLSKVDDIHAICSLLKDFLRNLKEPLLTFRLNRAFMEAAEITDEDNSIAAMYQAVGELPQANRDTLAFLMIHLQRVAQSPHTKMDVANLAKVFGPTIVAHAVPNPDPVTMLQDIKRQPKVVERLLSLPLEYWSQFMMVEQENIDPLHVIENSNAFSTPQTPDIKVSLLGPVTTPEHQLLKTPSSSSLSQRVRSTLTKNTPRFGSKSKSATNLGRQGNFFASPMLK

[6] = biological target: T3, Protein skinhead-1 (Caenorhabditis elegans, UniProt P34707); assay type: functional
T3 sequence (P34707 whole entry): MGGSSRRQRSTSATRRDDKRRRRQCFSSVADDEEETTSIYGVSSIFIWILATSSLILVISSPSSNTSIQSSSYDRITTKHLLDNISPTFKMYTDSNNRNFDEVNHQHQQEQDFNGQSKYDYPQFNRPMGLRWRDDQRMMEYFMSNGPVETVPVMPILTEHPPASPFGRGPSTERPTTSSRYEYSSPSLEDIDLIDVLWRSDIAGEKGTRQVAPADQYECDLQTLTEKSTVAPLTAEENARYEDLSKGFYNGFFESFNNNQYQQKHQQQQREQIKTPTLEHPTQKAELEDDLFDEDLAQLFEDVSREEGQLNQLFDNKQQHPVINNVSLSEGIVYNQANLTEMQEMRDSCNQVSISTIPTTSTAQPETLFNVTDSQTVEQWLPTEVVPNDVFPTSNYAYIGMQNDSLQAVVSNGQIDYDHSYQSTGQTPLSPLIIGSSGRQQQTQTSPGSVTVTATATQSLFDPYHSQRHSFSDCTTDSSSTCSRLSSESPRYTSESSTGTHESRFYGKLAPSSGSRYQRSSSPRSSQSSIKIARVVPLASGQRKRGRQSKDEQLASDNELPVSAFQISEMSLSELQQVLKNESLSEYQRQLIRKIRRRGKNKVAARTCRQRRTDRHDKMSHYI

[7] = off-target signal loss in HeLa-CEM21 co-culture – HeLa F-luc CTL cells, cherry-picked, counter-screen for HIV-1 Env fusion inhibitor project, dose response (AID 652040); assay type: functional, cell-based;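 note: potency for signal decrease marking cytotoxic or nonspecific inhibition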
[8] = viability of uninfected HEp-2 cells – cell-based, HTS, cytotoxicity control for RSV inhibitor project, dose response (AID 2410); assay type: functional; settings: human respiratory syncytial virus
[9] = P. falciparum Dd2 growth inhibitors, dose response, SYBR Green, cherry-picked samples (AID 1159567); assay type: functional, cell-based

Chain of Large T antigen (P03070 whole entry): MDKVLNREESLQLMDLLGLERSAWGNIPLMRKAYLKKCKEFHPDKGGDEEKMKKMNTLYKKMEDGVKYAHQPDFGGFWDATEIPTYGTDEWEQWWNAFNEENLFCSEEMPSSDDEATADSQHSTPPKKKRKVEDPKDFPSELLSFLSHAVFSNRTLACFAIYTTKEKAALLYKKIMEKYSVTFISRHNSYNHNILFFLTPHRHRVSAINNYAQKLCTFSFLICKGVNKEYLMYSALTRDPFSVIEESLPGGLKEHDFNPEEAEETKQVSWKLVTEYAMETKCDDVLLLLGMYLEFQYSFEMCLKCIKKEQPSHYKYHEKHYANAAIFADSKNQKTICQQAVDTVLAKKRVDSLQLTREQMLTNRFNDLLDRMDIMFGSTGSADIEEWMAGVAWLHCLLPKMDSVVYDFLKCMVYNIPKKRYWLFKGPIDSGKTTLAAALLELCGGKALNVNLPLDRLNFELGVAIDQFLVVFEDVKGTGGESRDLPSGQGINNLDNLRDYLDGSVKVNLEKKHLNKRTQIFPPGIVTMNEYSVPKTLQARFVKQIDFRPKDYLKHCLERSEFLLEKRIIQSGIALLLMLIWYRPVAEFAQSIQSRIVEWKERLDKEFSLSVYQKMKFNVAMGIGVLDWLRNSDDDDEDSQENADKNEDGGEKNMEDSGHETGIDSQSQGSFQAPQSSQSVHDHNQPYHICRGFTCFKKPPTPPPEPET

Cc1cccc(N2C(=O)/C(=C/Nc3ccc(O)cc3)c3ccccc3C2=O)n1
IC50 [1]: 7.67 µM (active)

Cc1ccc(NC(=O)N2CCC(NC(=O)c3cccc(C)c3)CC2)cc1
EC50 [2]: > 350 µM (not active)
EC50 [3]: > 350 µM (not active)
IC50 [4]: 10.5 µM (active)

CC(C(=O)Nc1ccccc1-c1ccccc1)N1CCN(C(=O)c2ccccc2)CC1 (stereo not given)
EC50 [2]: > 350 µM (not active)
EC50 [3]: > 350 µM (not active)

N#CC1(NC(=O)COc2ccccc2[N+](=O)[O-])CCCCC1
IC50 [4]: 18.7 µM (active)

Cc1ccc(C2C=NN(c3ccccc3)C2=O)cc1 (stereo not given)
IC50 [5]: 115 µM (active)
IC50 [1]: 31 µM (active)

CSc1ccc(-c2nnn(Cc3ccc(Br)cc3)n2)cc1
IC50 [6]: > 100 µM (inactive)

Cc1ccc(NC(=O)CSc2ncc3ccccn23)cc1
EC50 [2]: 41.4 µM (active)
EC50 [3]: > 350 µM (not active)

Nc1ncc(-c2ccc(-c3ccccc3)cc2F)cc1-c1ccccc1F
IC50 [6]: > 100 µM (inactive)

Nc1ncnc(O)c1/N=C/c1ccccc1
IC50 [1]: 28.6 µM (active)

CC(=O)c1ccc([C@H]2C[C@@]34CN(C(=O)OC(C)(C)C)S(=O)(=O)[C@H]3C[C@H]2O4)cc1
AC50 [7]: 36.6 µM (active)

CC/N=c1\scc(C)n1/N=C/c1cc(Br)c(O)c(OC)c1
IC50 [5]: 25.2 µM (active)
IC50 [1]: 8.55 µM (active)
CC50 [8]: 15.6 µM (active)

CCOC(=O)/C(=N\Nc1ccc(F)cc1)C(=O)c1ccc([N+](=O)[O-])cc1
EC50 [2]: > 350 µM (not active)
EC50 [3]: > 350 µM (not active)

C[C@@H]1CN([C@H](C)CO)S(=O)(=O)c2ccc(C#C[C@@H](C)O)cc2O[C@H]1CN(C)C(=O)Nc1ccccc1
AC50 [9]: 13 µM (active)

COc1ccc(NC(=O)Nc2ccc3c(c2)CC(=O)N([C@H](C)CO)C[C@H](C)[C@@H](CN(C)CC2CCCCC2)O3)cc1
AC50 [9]: 4.53 µM (active)

COc1ccc(-c2ccc([C@@H]3[C@H]4CN(C(=O)NC(C)C)CC(=O)N4[C@H]3CO)cc2)cc1
AC50 [9]: 10 µM (active)

COc1ccccc1-c1ccccc1[C@H]1[C@H](C#N)N(C(=O)C2CCC2)[C@H]1CO
AC50 [9]: 12 µM (active)

COc1ccc(NC(=O)Nc2ccc3c(c2)[C@H]2C[C@H](CC(=O)N4CCc5ccccc5C4)O[C@H](CO)[C@H]2O3)cc1
AC50 [9]: 7.78 µM (active)
